Assay results as given in patent US5681816A, “Method of inducing temporary paralysis of the gastrointestinal tract during medical procedure” (priority 1994, dated 1997).
Like-named read-outs stand apart in the source and are kept apart here.

Legend:
[1] = for blood pressure and pulse: first patient
Procedure: During the period of observation, vital signs (blood pressure and pulse) and symptoms were continuously recorded. The protocol was such that if the blood pressure dropped by more than 20 mm Hg systolic or diastolic or the pulse increased by more than 30 beats per minute for 2 minutes, intravenous saline was to be administered and the study terminated.

[2] = in vivo; cited from earlier work
[3] = system: rat and guinea pig isolated midcolon sections; details: cited from earlier work
isolated human ileum = details: all frequencies tested; cited from earlier work
gastroduodenal motility = details: cited from earlier work
[4] = in vivo; cited from earlier work; remark: listed apart in the source
opossum duodenum = details: cited from earlier work
[5] = 1 mg intravenously followed by 2 mg IV over 2 hours

Molecule: CC[C@H](C)[C@H](NC(=O)[C@H](CO)NC(=O)[C@H](CC(N)=O)NC(=O)[C@H](CC(C)C)NC(=O)[C@H](Cc1ccc(O)cc1)NC(=O)[C@H](CCCCN)NC(=O)[C@H](CCCCN)NC(=O)[C@@H](NC(=O)[C@H](C)NC(=O)[C@H](CCSC)NC(=O)[C@H](CCC(N)=O)NC(=O)[C@H](CCCCN)NC(=O)[C@H](CCCN=C(N)N)NC(=O)[C@H](CC(C)C)NC(=O)[C@H](CCCN=C(N)N)NC(=O)[C@@H](NC(=O)[C@H](Cc1ccc(O)cc1)NC(=O)[C@H](CC(N)=O)NC(=O)[C@H](CC(=O)O)NC(=O)[C@@H](NC(=O)[C@H](Cc1ccccc1)NC(=O)[C@@H](NC(=O)[C@H](C)NC(=O)[C@H](CC(=O)O)NC(=O)[C@H](CO)NC(=O)[C@@H](N)Cc1c[nH]cn1)C(C)C)[C@@H](C)O)[C@@H](C)O)C(C)C)C(=O)N[C@@H](CC(C)C)C(=O)N[C@@H](CC(N)=O)C(N)=O [VIP, vasoactive intestinal peptide]
- blood pressure and pulse ([1]; 5 ng VIP per kg): slight decrease in systolic pressure and increase in pulse
- blood pressure and pulse ([1]; higher dose level (20 ng/kg)): these effects on blood pressure and pulse were not seen
- blood pressure or pulse ([1]; second patient, any of the dosages tested): no significant change
- effect on blood pressure ([1]; summary statement): without a significant effect
- blood pressure or pulse ([1]; third patient, any dose): no significant change
- adverse reactions such as nausea or vomiting ([1]; three patients): None of the three patients studied experienced any adverse reactions

Molecule: CN1[C@@H]2CC[C@H]1C[C@@H](OC(=O)C(CO)c1ccccc1)C2 (stereo partly drawn) [atropine]
- beneficial effects during endoscopies (patient tolerance, facilitation of endoscopy) [2]: failed to demonstrate any beneficial effects
- ascending contractions ([3]; all grades of stretch): strongly inhibits
- descending relaxation [3]: no effect
- response to electrical field stimulation (isolated human ileum): primary relaxation

Molecule: glucagon
- cycle length and time between contractile activity in the duodenum (gastroduodenal motility; [5]): significantly increased
- mean pressure period (gastroduodenal motility; [5]): decreased
- contractions in the antrum (gastroduodenal motility; doses as high as 2 mg): does not reduce contractions
- colonoscopic evaluation (gastroduodenal motility; in vivo): does not facilitate
- gastroduodenal motility (gastroduodenal motility; in vivo): variable reduction
- minimally effective dose for reduction in gastroduodenal motility (gastroduodenal motility; in vivo): 0.5 mg
- dose at which nausea and vomiting can appear [4]: 1 mg
- effect on opossum duodenum (opossum duodenum): stimulated relaxation
